Several values for one entry are separate records, joined by “and”; a condition that tells them apart may be missing. Equal values may be shown once.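 Five compound concentrations were applied to cells in 96-well plates for 48 hours; endpoints were derived by simple linear interpolation of the resulting dose-response curve. At the GI50, growth is halved. Definition used: TGI = concentration required for complete inhibition of growth.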
Legend:
Assay in all cases: inhibition of tumour cell growth, NCI panel, 48 h
[1] = tested on: ACHN renal
[2] = tested on: RXF 393 renal
[3] = tested on: SW-620 colon
[4] = tested on: HT29 colon
[5] = tested on: OVCAR-5 ovarian
[6] = tested on: K-562 leukemia
[7] = tested on: M14 melanoma
[8] = tested on: NCI-H460 lung
[9] = tested on: OVCAR-8 ovarian
[10] = tested on: HCT-15 colon

| SMILES | GI50 [1] | TGI [1] | GI50 [2] | TGI [2] | GI50 [3] | TGI [3] | GI50 [4] | TGI [4] | GI50 [5] | TGI [5] | GI50 [6] | TGI [6] | GI50 [7] | GI50 [8] | GI50 [9] | GI50 [10] | TGI [10] | TGI [7] | TGI [8] | TGI [9] |
| --- | --- | --- | --- | --- | --- | --- | --- | --- | --- | --- | --- | --- | --- | --- | --- | --- | --- | --- | --- | --- |
| C[C@@H]1COCCN1c1cc(-c2ccnn2C)c2ccnc(-c3ccn[nH]3)c2n1 | 0.0417 µM | 0.596 µM | 0.0236 µM and 0.0851 µM | 0.0776 µM and 0.497 µM | 0.259 µM and 0.603 µM | > 100 µM | 0.237 µM and 0.389 µM | 36.4 µM and > 100 µM | 0.103 µM and 0.193 µM | > 100 µM | 0.0844 µM and 0.384 µM | > 100 µM | 0.0291 µM and 0.0471 µM | 0.0561 µM and 0.128 µM | 0.17 µM and 0.415 µM | 0.0344 µM and 0.0968 µM | > 100 µM | – | – | – |
| Cc1nn(C(=O)c2ccncc2)c2c1C(c1cccc([N+](=O)[O-])c1)SC(N)=N2 (configuration not stated) | – | > 10 µM | – | > 10 µM | – | > 10 µM | – | > 10 µM | – | > 10 µM | – | > 10 µM | – | – | – | – | > 10 µM | > 10 µM | > 10 µM | > 10 µM |
| CCN(C(=O)CN1CCN(c2cc3c(cc2F)c(=O)c(C(=O)O)cn3CC)CC1)c1nc(-c2ccccc2)cs1 | 0.33 µM | > 100 µM | 0.381 µM | > 100 µM | 0.412 µM | > 100 µM | 0.301 µM | > 100 µM | 0.505 µM | > 100 µM | 0.337 µM | > 100 µM | 0.363 µM | 0.394 µM | 0.364 µM | 0.356 µM | > 100 µM | > 100 µM | > 100 µM | > 100 µM |
| O=C(Nc1ccccc1Cl)c1cccc(NC2=C(Cl)C(=O)N(Cc3ccccc3)C2=O)c1 | 60.5 µM | > 100 µM | 52.5 µM | > 100 µM | 26.1 µM | > 100 µM | 19.8 µM | > 100 µM | > 100 µM | > 100 µM | 2.67 µM | 35.3 µM | 9.32 µM | 26.8 µM | 20.8 µM | 14.1 µM | > 100 µM | 29.5 µM | > 100 µM | > 100 µM |
| CCOC(=O)c1c(NCc2ccccc2)n(-c2ccccc2)c(=S)n(-c2ccccc2)c1=O | – | > 100 µM | – | > 100 µM | – | > 100 µM | – | > 100 µM | – | > 100 µM | – | > 100 µM | – | – | – | – | > 100 µM | > 100 µM | > 100 µM | > 100 µM |
| CC/C=C\C/C=C/C=C1/C(=O)C=C[C@@H]1C/C=C\CCCC(=O)OC | 1.97 µM | 3.99 µM | 1.94 µM | 3.84 µM | 1.11 µM | 7.68 µM | 2.21 µM | 5.57 µM | 3.32 µM | 11.1 µM | 1.38 µM | 20.9 µM | 3.22 µM | 3.07 µM | 2.75 µM | 2.2 µM | 7.89 µM | 11.8 µM | 8.85 µM | > 100 µM |
| COC/N=C(/N)NC#N | – | > 100 µM | – | > 100 µM | – | 33.6 µM | – | > 100 µM | – | > 100 µM | – | > 100 µM | – | – | – | – | 31 µM | > 100 µM | > 100 µM | > 100 µM |
| C=C(Br)CNCC(=C)Br | – | > 100 µM | – | > 100 µM | – | > 100 µM | – | > 100 µM | – | > 100 µM | – | > 100 µM | – | – | – | – | > 100 µM | > 100 µM | > 100 µM | > 100 µM |
| CSCCCNC(=O)c1csc(-c2csc(CCNC(=O)CNC(=O)CNC(=O)CNC(=O)OC(C)(C)C)n2)n1 | – | > 100 µM | – | > 100 µM | – | > 100 µM | – | > 100 µM | – | > 100 µM | – | > 100 µM | – | – | – | – | > 100 µM | > 100 µM | > 100 µM | > 100 µM |
| CCOC1OC(=O)[C@H]2[C@@H]1[C@@H]1CC[C@H]2O1 (some centres not stated) | > 100 µM | > 100 µM | > 100 µM | > 100 µM | > 100 µM | > 100 µM | 24.8 µM | > 76.3 µM | > 100 µM | > 100 µM | > 100 µM | > 100 µM | > 100 µM | > 100 µM | > 100 µM | > 100 µM | > 100 µM | > 100 µM | > 100 µM | > 100 µM |
| NNc1c2ccccc2nc2ccccc12 | 5.31 µM | 33.9 µM | 7.4 µM | 24.4 µM | 4.06 µM | 27.4 µM | 3.28 µM | 16.1 µM | 15.8 µM | 54.1 µM | 3.32 µM | 64.7 µM | 6.11 µM | 2.48 µM | 5.09 µM | 4.2 µM | 34.2 µM | 21.8 µM | 15.5 µM | 30.7 µM |
| C=C1C(=O)O[C@H]2[C@H]1CC/C(CNC(=O)/C=C/c1ccccc1)=C\CC[C@@]1(C)O[C@@H]21 | 0.755 µM | 2.03 µM | 0.864 µM | 2.15 µM | 0.577 µM | 2.32 µM | 0.754 µM | 3.04 µM | 1.61 µM | 4.27 µM | 0.551 µM | 7.09 µM | 1.15 µM | 2.18 µM | 2.44 µM | 0.672 µM | 2.06 µM | 3.23 µM | 5.05 µM | 9.78 µM |
| O=NN(CCCl)C(=O)NC1CCC(=O)NC1=O (configuration not stated) | – | > 1250 µM | – | 583 µM | – | 270 µM | – | > 1250 µM | – | > 1210 µM | – | 595 µM | – | – | – | – | 846 µM | 905 µM | 463 µM | 293 µM |
| Oc1c(Cl)cc(Cl)c2cccnc12 | 3.78 µM | 40.5 µM | 2.25 µM | 7.91 µM | 4.47 µM | 18.4 µM | 4.99 µM | 18 µM | 8.71 µM | 43.3 µM | 3.77 µM | > 100 µM | 1.96 µM | 1.87 µM | 2.75 µM | 4.73 µM | 25.9 µM | 5.26 µM | 6.9 µM | 54.6 µM |
| CN1CCc2c1nc(-c1cccnc1)c1c2N(C)CC1 | – | > 100 µM | – | > 100 µM | – | > 100 µM | – | > 100 µM | – | > 100 µM | – | > 100 µM | – | – | – | – | > 100 µM | > 100 µM | > 100 µM | > 100 µM |
| Cn1nnc2c(C(N)=O)ncn2c1=O | – | > 100 µM | – | > 100 µM | – | > 100 µM | – | > 100 µM | – | > 100 µM | – | > 100 µM | – | – | – | – | > 100 µM | > 100 µM | > 100 µM | > 100 µM |

Source: PubChem BioAssay (NCI)
